Here are results for two compounds from PMC5980577 (CPT: Pharmacometrics & Systems Pharmacology, 2018).

Like-named read-outs stand apart in the source and are kept apart here.

Series [1] can be described thus: Circulating metabolites measured in plasma in clinical studies. To be noted: all studies. It counts as in vivo, human.
In the next series the test system is CYP1A2. The experiment in a line: CYP1A2 contribution to metabolism and retrograde intrinsic clearance. Type of series: in vitro ADME, human. The note with it: retrograde approach.
For another series, the system named is CYP2A6. The experiment in a line: CYP2A6 contribution to metabolism and retrograde intrinsic clearance. Type of series: in vitro ADME, human. To be noted: retrograde approach.
In the next series the test system is CYP2C9. The experiment in a line: CYP2C9 contribution to metabolism and retrograde intrinsic clearance. To be noted: retrograde approach. Type of series: in vitro ADME, human.
In another series the test system is CYP2E1. The series is described as follows: CYP2E1 contribution to metabolism and retrograde intrinsic clearance. Type of series: in vitro ADME, human. The note with it: retrograde approach.
For a further series, the system named is CYP3A4. The experiment in a line: CYP3A4 contribution to metabolism and retrograde intrinsic clearance. To be noted: retrograde approach. Type of series: in vitro ADME, human.
A further series has as its system CYP3A5. The experiment in a line: CYP3A5 contribution to metabolism and retrograde intrinsic clearance. Type of series: in vitro ADME, human. To be noted: retrograde approach.
A further series addresses T1, CYP2C8 (Homo sapiens, UniProt P10632).
T1 sequence (P10632 1-490): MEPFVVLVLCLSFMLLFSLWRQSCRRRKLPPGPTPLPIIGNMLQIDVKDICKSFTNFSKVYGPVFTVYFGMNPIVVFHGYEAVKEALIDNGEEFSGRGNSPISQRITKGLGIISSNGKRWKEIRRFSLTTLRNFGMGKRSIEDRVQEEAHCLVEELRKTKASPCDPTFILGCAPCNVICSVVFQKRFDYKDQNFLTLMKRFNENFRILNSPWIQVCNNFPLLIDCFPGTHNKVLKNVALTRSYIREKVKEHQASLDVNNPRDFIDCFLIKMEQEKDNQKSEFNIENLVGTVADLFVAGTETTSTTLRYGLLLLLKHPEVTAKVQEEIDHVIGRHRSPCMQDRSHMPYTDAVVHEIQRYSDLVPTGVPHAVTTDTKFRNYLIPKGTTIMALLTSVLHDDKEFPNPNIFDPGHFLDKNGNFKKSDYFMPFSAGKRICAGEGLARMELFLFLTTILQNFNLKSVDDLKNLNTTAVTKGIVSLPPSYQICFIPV
The series is described as follows: CYP2C8 reversible. Type of series: in vitro ADME.

The test system of series [2] is CYP3A4/5. The series is described as follows: CYP3A4/5 reversible. To be noted: human. It counts as in vitro ADME.
Series [3] is described as follows: Fraction unbound in microsomal incubation. It counts as in vitro ADME. The note with it: microsomes (microsomal incubation).
Series [4] addresses T2, BCRP (Homo sapiens, UniProt Q9UNQ0).
T2 sequence (Q9UNQ0 1-655): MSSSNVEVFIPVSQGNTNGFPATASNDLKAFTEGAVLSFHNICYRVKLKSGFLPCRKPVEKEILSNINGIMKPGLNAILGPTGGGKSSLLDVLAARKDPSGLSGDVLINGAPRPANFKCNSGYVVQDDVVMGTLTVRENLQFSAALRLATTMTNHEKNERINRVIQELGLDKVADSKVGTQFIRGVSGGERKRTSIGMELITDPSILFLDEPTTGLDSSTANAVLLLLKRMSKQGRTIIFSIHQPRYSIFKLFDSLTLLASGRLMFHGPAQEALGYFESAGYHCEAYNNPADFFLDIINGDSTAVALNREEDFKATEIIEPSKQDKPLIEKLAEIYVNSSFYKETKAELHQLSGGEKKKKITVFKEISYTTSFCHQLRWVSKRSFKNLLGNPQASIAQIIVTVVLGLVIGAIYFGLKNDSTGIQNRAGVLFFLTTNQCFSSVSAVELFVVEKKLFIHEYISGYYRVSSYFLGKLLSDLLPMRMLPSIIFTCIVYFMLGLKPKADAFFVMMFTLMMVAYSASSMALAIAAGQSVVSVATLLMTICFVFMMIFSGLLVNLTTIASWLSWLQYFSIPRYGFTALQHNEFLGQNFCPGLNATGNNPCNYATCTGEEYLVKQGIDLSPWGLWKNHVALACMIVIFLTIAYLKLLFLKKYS
The series is described as follows: BCRP inhibition, basic static model. It counts as in vitro ADME.

The target in another series is T3, OATP1B1 (Homo sapiens, UniProt Q9Y6L6).
T3 sequence (Q9Y6L6 1-691): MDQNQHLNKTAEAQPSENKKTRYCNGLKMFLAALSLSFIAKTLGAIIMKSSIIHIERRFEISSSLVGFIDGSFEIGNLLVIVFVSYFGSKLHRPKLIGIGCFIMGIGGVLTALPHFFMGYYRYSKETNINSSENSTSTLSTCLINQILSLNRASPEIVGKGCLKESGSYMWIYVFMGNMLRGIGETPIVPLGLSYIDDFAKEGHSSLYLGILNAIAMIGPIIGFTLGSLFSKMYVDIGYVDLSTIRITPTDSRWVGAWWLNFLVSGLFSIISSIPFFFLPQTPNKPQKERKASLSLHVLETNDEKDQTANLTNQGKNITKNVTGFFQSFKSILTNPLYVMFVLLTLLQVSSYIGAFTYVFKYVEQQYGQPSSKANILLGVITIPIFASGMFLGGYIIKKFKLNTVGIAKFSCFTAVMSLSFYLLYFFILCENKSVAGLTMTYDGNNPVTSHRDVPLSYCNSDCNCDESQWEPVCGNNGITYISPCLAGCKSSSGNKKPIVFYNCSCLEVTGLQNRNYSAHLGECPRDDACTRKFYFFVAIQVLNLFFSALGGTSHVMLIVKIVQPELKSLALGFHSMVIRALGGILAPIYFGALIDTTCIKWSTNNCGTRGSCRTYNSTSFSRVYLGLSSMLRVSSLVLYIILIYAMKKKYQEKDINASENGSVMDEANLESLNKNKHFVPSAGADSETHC
The series is described as follows: OATP1B1 inhibition, basic static model. Type of series: in vitro ADME.

For the next series, the target named is P-glycoprotein (P-gp) (Homo sapiens, UniProt P08183). The series is described as follows: In vitro efflux transporter substrate study, P-gp. It counts as in vitro ADME.
Sequence of P-glycoprotein (P-gp) (P08183 whole entry): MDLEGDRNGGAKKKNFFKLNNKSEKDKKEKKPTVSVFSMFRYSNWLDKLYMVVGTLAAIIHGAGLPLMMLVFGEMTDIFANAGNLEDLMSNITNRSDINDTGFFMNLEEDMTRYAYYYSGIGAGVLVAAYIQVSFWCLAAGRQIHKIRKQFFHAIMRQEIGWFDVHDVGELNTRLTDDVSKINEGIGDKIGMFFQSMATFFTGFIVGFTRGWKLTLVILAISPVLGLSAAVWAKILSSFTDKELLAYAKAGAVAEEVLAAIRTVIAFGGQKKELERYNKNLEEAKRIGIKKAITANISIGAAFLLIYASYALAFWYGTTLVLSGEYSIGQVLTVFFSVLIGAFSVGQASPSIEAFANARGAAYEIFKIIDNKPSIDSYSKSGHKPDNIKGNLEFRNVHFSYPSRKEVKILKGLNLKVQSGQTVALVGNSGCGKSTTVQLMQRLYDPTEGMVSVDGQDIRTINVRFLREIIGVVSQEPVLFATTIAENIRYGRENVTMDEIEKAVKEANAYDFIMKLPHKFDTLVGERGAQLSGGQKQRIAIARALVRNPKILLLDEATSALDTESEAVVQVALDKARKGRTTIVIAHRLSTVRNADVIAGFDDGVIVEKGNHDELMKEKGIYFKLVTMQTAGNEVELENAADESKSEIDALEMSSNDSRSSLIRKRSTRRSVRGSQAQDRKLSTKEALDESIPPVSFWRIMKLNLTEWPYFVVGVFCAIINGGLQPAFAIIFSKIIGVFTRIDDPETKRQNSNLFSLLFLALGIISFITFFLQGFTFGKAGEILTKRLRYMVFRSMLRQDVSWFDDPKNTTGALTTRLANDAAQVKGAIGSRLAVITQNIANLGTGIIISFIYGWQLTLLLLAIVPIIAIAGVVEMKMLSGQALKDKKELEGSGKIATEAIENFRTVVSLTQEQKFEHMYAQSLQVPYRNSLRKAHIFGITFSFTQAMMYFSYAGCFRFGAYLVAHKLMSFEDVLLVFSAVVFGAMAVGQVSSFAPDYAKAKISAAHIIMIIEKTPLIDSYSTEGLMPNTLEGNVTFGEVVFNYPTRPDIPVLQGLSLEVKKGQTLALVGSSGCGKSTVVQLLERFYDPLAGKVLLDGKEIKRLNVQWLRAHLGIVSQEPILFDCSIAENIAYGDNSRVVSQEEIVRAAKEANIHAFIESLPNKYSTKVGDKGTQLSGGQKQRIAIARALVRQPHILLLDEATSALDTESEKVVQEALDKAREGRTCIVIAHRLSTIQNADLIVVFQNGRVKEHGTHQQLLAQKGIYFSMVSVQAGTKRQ
The target of series [5] is T2, BCRP. The series is described as follows: In vitro efflux transporter substrate study, BCRP. Type of series: in vitro ADME.
The format of series [6] is in vivo. To be noted: human, plasma, oral, 80 mg.
The conditions of series [7]: cited from earlier work.
Series [8] deals with CYP3A4/5. The note with it: in vitro data; cited from earlier work.
For series [9] the following is noted: doses studied 20–240 mg; cited from earlier work.
For series [10] the following is noted: multiple doses 80 mg once daily, no inducer.

Take `C=CC(=O)Nc1cc(Nc2nccc(-c3cn(C)c4ccccc34)n2)c(OC)cc1N(C)CCNC` [AZ7550]: the “contribution of metabolite to total drug-related exposure” value in series [1] is less than 10%.
On to `C=CC(=O)Nc1cc(Nc2nccc(-c3cn(C)c4ccccc34)n2)c(OC)cc1N(C)CCN(C)C` [Osimertinib], for which the “CYP1A2 CLint” value in the series with CYP1A2 is recorded as 0.520 µL/min/pmol of isoform. The “CYP2A6 CLint” value in the series on CYP2A6 is on record as 1.749 µL/min/pmol of isoform. The “CYP2C9 CLint” value in the series on CYP2C9 is listed as 0.479 µL/min/pmol of isoform. In the series on CYP2E1, the “CYP2E1 CLint” value was 0.111 µL/min/pmol of isoform. In addition, the “CYP3A4 CLint” value in the series with CYP3A4 is recorded as 0.731 µL/min/pmol of isoform. Also, in the series on CYP3A5, the “CYP3A5 CLint” value was 0.210 µL/min/pmol of isoform. The Ki stood at 11.4 µM on CYP2C8; 2.55 µM with CYP3A4/5 [2]; 2 µM at BCRP [4]; 22 µM at OATP1B1; 52.5 µM at OATP1B1 (human). This compound showed an unbound share (fraction unbound) in [3] of 0.0261. Also, the “BCRP Potential for DDI” value on BCRP [4] (basic static model) is given as “likely”. In addition, the “substrate for P-gp” value at P-glycoprotein (P-gp) was “substrate”. Besides, the “substrate for BCRP” value at BCRP [5] was “substrate”. Moreover, the AUC in series [6] came to 11.5 µM·h. Further, in [7], the “median (range) Tmax” value is given as 6 (3–24) hours. The “median time of maximum plasma concentration (Tmax)” value in series [7] (oncology patients) is 6 h. Also, the oral clearance in series [7] (oncology patients) is recorded as 14.2 L/h. In series [7] (oncology patients), the volume of distribution result is “around 997 L”. The “increase of Cmax and AUC with dose” value in series [7] (single oral doses of 20 to 240 mg) is reported as “dose proportional”. In the series with CYP3A4/5 [8], the “fraction metabolized (fm) CYP3A” value is recorded as 54%. Also, in series [9], the maximum tolerated dose entry is “no maximum tolerated dose was reached”. In [10], the “Css,max Geo.mean (range) [%CV], observed” value is given as 545 (258 to 1,220) nM.
